The test system of assay [1] is E. coli ATCC 25922. The experiment in a line: Checkerboard dilution assay for synergy between CAMPs and antibiotics. The assay is classed as cell-based.
In assay [2] the test system is E. coli ATCC 25922. Put plainly: MIC test for dividing and non-dividing bacterial cultures. In kind it is cell-based. Particulars: Escherichia coli, ATCC25922, 1 h.
[3] abbreviates: peptide + ampicillin, 5 × 10^3 CFU/mL.
Setting [4] is: peptide + ampicillin, 5 × 10^5 CFU/mL.
The mark [5] stands for this setting: peptide + gentamicin, 5 × 10^3 CFU/mL.
Where [6] appears, read: peptide + gentamicin, 5 × 10^5 CFU/mL.
Where [7] appears, read: peptide + levofloxacin, 5 × 10^3 CFU/mL.
[8] abbreviates: peptide + levofloxacin, 5 × 10^5 CFU/mL.
Where [9] appears, read: read-out: MIC, dividing cells (LB).
Where [10] appears, read: read-out: MIC, non-dividing cells (PBS).

Converted amounts (≈) assume the structure as drawn. Structures can show the parent of a compound that is named as a salt. Where two headings read alike, the source gives them in different places. Where a SMILES comes first, the peptide text is derived from it. [ ]: non-standard residue; d: D form.

Our source for the FICI and MIC values is article PMC10979160 (Heliyon, 2024).

In general, MIC refers to the smallest concentration in the dilution series that meets the test's criterion for growth inhibition.

Turning to `CC[C@@H](C)[C@@H](NC(=O)[C@@H](Cc1c[nH]c2ccccc12)NC(=O)[C@H](N)CCCNC(=N)N)C(=O)N[C@H](CCCNC(=N)N)C(=O)N[C@H](Cc1c[nH]c2ccccc12)C(=O)N[C@@H](C(=O)N[C@H](Cc1c[nH]c2ccccc12)C(=O)N[C@H](CCCNC(=N)N)C(=O)N[C@H](CCCCN)C(=O)N[C@H](CCCCN)C(=O)N[C@H](CC(C)C)C(=O)N[C@H](CCCNC(=N)N)C(N)=O)C(C)C` [24D] (H-[dR][dW][dI][dR][dW][dV][dW][dR][dK][dK][dL][dR]-NH2), the FICI in the assay with E. coli ATCC 25922 [1] (setting [3]) is listed as 1.016; with E. coli ATCC 25922 [1] (setting [4]), 0.625; with E. coli ATCC 25922 [1] (setting [5]) it was 1.015; with E. coli ATCC 25922 [1] (setting [6]), 1; in the assay on E. coli ATCC 25922 [1] (setting [7]) it was 1; in the assay on E. coli ATCC 25922 [1] (setting [8]), 1.031.
As to `CC[C@H](C)[C@H](NC(=O)[C@H](Cc1c[nH]c2ccccc12)NC(=O)[C@@H](N)CCCNC(=N)N)C(=O)N[C@@H](CCCNC(=N)N)C(=O)N[C@@H](Cc1c[nH]c2ccccc12)C(=O)N[C@H](C(=O)N[C@@H](Cc1c[nH]c2ccccc12)C(=O)N[C@@H](CCCNC(=N)N)C(=O)N[C@@H](CCCCN)C(=O)N[C@@H](CCCCN)C(=O)N[C@@H](CC(C)C)C(=O)N[C@@H](CCCNC(=N)N)C(N)=O)C(C)C` [24L] (H-RWIRWVWRKKLR-NH2), the FICI in the assay with E. coli ATCC 25922 [1] (setting [3]) is listed as 0.625; in the assay with E. coli ATCC 25922 [1] (setting [4]), 0.5; in the assay on E. coli ATCC 25922 [1] (setting [5]) it was 1; with E. coli ATCC 25922 [1] (setting [6]), 0.5; in the assay on E. coli ATCC 25922 [1] (setting [7]), 0.75; with E. coli ATCC 25922 [1] (setting [8]), 0.5.
As to `CC1(C)S[C@@H]2[C@H](NC(=O)[C@H](N)c3ccccc3)C(=O)N2[C@H]1C(=O)O` [Ampicillin, ampicillin sodium salt], the MIC in the assay with E. coli ATCC 25922 [2] (setting [9]) and with E. coli ATCC 25922 [2] (setting [10]) was > 100 µg/mL each time.
As for `CNC(C)C1CCC(N)C(OC2C(N)CC(N)C(OC3OCC(C)(O)C(NC)C3O)C2O)O1` (stereo not shown) [Gentamicin, gentamicin], the MIC is 50 µg/mL (≈ 105 µM) in the assay with E. coli ATCC 25922 [2] (setting [9]) and 25 µg/mL (≈ 52.3 µM) in the assay on E. coli ATCC 25922 [2] (setting [10]).
Take `CC[C@H](C)[C@H](NC(=O)[C@H](C)N)C(=O)N[C@@H](CCCCN)C(=O)N[C@H](C(=O)N[C@@H](CCCNC(=N)N)C(=O)N[C@@H](CCCCN)C(=O)N[C@@H](CC(C)C)C(=O)N[C@@H](Cc1ccccc1)C(=O)N[C@@H](CCCCN)C(=O)N[C@@H](CCCCN)C(=O)N[C@@H](CC(C)C)C(=O)N[C@@H](CC(C)C)C(=O)N[C@@H](CCCNC(=N)N)C(N)=O)[C@@H](C)CC` [L1L] (H-AIKIRKLFKKLLR-NH2): the FICI with E. coli ATCC 25922 [1] (setting [3]) came to 0.563; in the assay on E. coli ATCC 25922 [1] (setting [4]), 0.5; in the assay on E. coli ATCC 25922 [1] (setting [5]) it was 0.75; in the assay on E. coli ATCC 25922 [1] (setting [6]), 0.5; with E. coli ATCC 25922 [1] (setting [7]), 0.625; in the assay on E. coli ATCC 25922 [1] (setting [8]), 0.5.
In the case of `CC[C@H](C)[C@H](NC(=O)CN)C(=O)N[C@@H](CCCCN)C(=O)N[C@H](C(=O)N[C@@H](CCCNC(=N)N)C(=O)N[C@@H](CCCCN)C(=O)N[C@@H](CC(C)C)C(=O)N[C@@H](Cc1ccccc1)C(=O)N[C@@H](CCCCN)C(=O)N[C@@H](CCCCN)C(=O)N[C@@H](CC(C)C)C(=O)N[C@@H](CC(C)C)C(=O)N[C@@H](CCCNC(=N)N)C(N)=O)[C@@H](C)CC` [LCAPL2] (H-GIKIRKLFKKLLR-NH2), the FICI is given as 0.5 in the assay with E. coli ATCC 25922 [1] (setting [3]); 0.75 in the assay with E. coli ATCC 25922 [1] (setting [4]); 0.625 with E. coli ATCC 25922 [1] (setting [5]); 0.375 in the assay on E. coli ATCC 25922 [1] (setting [6]); 0.531 in the assay on E. coli ATCC 25922 [1] (setting [7]); 0.625 with E. coli ATCC 25922 [1] (setting [8]).
With `CC[C@H](C)[C@H](NC(=O)[C@H](CCCNC(=N)N)NC(=O)[C@H](CCCCN)NC(=O)[C@H](CC(C)C)NC(=O)[C@H](Cc1ccccc1)NC(=O)[C@H](CCCNC(=N)N)NC(=O)[C@H](C)NC(=O)[C@@H](N)C(C)C)C(=O)N[C@H](C(=O)N[C@@H](CCCCN)C(=O)N[C@@H](C)C(=O)N[C@@H](CC(C)C)C(=O)N[C@@H](Cc1ccccc1)C(N)=O)[C@@H](C)CC` [LCAPL8] (H-VARFLKRIIKALF-NH2), the FICI with E. coli ATCC 25922 [1] (setting [3]) was determined as 1.016; in the assay on E. coli ATCC 25922 [1] (setting [4]), 1.031; in the assay with E. coli ATCC 25922 [1] (setting [5]), 1.031; in the assay on E. coli ATCC 25922 [1] (setting [6]) it was 0.531; in the assay on E. coli ATCC 25922 [1] (setting [7]) it was 1.25; in the assay with E. coli ATCC 25922 [1] (setting [8]), 0.625.
With `CC[C@H](C)[C@H](NC(=O)[C@H](Cc1ccccc1)NC(=O)CN)C(=O)N[C@@H](CCCCN)C(=O)N[C@H](C(=O)N[C@H](C(=O)N[C@@H](CCCNC(=N)N)C(=O)N[C@@H](CCCCN)C(=O)N[C@@H](CC(C)C)C(=O)N[C@@H](CC(C)C)C(=O)N[C@@H](CCCNC(=N)N)C(=O)N[C@@H](CC(C)C)C(=O)N[C@@H](Cc1ccccc1)C(N)=O)C(C)C)[C@@H](C)CC` [LCAPL9] (H-GFIKIVRKLLRLF-NH2), the FICI was determined as 1.016 in the assay with E. coli ATCC 25922 [1] (setting [3]); 0.625 with E. coli ATCC 25922 [1] (setting [4]); 1 in the assay on E. coli ATCC 25922 [1] (setting [5]); 1.031 with E. coli ATCC 25922 [1] (setting [6]); 2 in the assay with E. coli ATCC 25922 [1] (setting [7]); 1.25 with E. coli ATCC 25922 [1] (setting [8]).
On to `CC[C@H](C)[C@H](N)C(=O)N[C@H](C(=O)N[C@@H](CCCCN)C(=O)N[C@@H](CCCNC(=N)N)C(=O)N[C@H](C(=O)N[C@@H](CC(C)C)C(=O)N[C@H](C(=O)N[C@@H](CCC(N)=O)C(=O)N[C@@H](CC(C)C)C(=O)N[C@@H](CCCCN)C(=O)N[C@@H](CCCCN)C(=O)N[C@@H](CC(C)C)C(=O)N[C@@H](CC(C)C)C(N)=O)[C@@H](C)CC)[C@@H](C)CC)[C@@H](C)CC` [LCAPL10] (H-IIKRILIQLKKLL-NH2), for which the FICI was 1.016 in the assay on E. coli ATCC 25922 [1] (setting [3]); 0.75 with E. coli ATCC 25922 [1] (setting [4]); 1.125 in the assay with E. coli ATCC 25922 [1] (setting [5]); 0.5 in the assay with E. coli ATCC 25922 [1] (setting [6]); 1.031 in the assay on E. coli ATCC 25922 [1] (setting [7]); 0.531 with E. coli ATCC 25922 [1] (setting [8]).
Turning to `CC(C)C[C@H](NC(=O)[C@H](Cc1ccccc1)NC(=O)[C@H](CCCCN)NC(=O)[C@@H](N)CCCCN)C(=O)NCC(=O)N[C@@H](CCCCN)C(=O)N[C@@H](Cc1c[nH]c2ccccc12)C(=O)N[C@@H](CCCCN)C(=O)N[C@@H](CC(C)C)C(=O)N[C@@H](CCCNC(=N)N)C(=O)N[C@@H](Cc1ccccc1)C(=O)NCC(=O)N[C@@H](Cc1c[nH]c2ccccc12)C(N)=O` [LCAPL15] (H-KKFLGKWKLRFGW-NH2), the FICI with E. coli ATCC 25922 [1] (setting [3]) was found to be 0.75; in the assay with E. coli ATCC 25922 [1] (setting [4]), 0.563; with E. coli ATCC 25922 [1] (setting [5]), 1.031; in the assay with E. coli ATCC 25922 [1] (setting [6]), 0.75; in the assay on E. coli ATCC 25922 [1] (setting [7]) it was 0.75; with E. coli ATCC 25922 [1] (setting [8]) it was 0.563.
In the case of `CC(C)C[C@@H](N)C(=O)N[C@@H](C(=O)N[C@H](Cc1c[nH]c2ccccc12)C(=O)N[C@H](CCCCN)C(=O)N[C@H](CC(C)C)C(=O)N[C@H](Cc1c[nH]c2ccccc12)C(=O)N[C@H](Cc1c[nH]c2ccccc12)C(=O)N[C@H](CCCNC(=N)N)C(=O)N[C@H](CC(C)C)C(=O)N[C@H](CCCNC(=N)N)C(=O)N[C@H](Cc1c[nH]c2ccccc12)C(=O)N[C@H](CC(C)C)C(=O)N[C@H](CCCCN)C(N)=O)C(C)C` [ST1D] (H-[dL][dV][dW][dK][dL][dW][dW][dR][dL][dR][dW][dL][dK]-NH2), the FICI with E. coli ATCC 25922 [1] (setting [3]) is 0.625; in the assay on E. coli ATCC 25922 [1] (setting [4]), 0.625; with E. coli ATCC 25922 [1] (setting [5]) it was 0.516; in the assay with E. coli ATCC 25922 [1] (setting [6]), 0.625; with E. coli ATCC 25922 [1] (setting [7]) it was 1; in the assay with E. coli ATCC 25922 [1] (setting [8]) it was 1.031.
As to `CC(C)C[C@H](NC(=O)[C@H](Cc1c[nH]c2ccccc12)NC(=O)[C@H](CCCNC(=N)N)NC(=O)[C@H](CC(C)C)NC(=O)[C@H](CCCNC(=N)N)NC(=O)[C@H](Cc1c[nH]c2ccccc12)NC(=O)[C@H](Cc1c[nH]c2ccccc12)NC(=O)[C@H](CC(C)C)NC(=O)[C@H](CCCCN)NC(=O)[C@H](Cc1c[nH]c2ccccc12)NC(=O)[C@@H](NC(=O)[C@@H](N)CC(C)C)C(C)C)C(=O)N[C@@H](CCCCN)C(N)=O` [ST1L] (H-LVWKLWWRLRWLK-NH2), the FICI turned out to be 0.375 with E. coli ATCC 25922 [1] (setting [3]); 0.625 with E. coli ATCC 25922 [1] (setting [4]); 1 with E. coli ATCC 25922 [1] (setting [5]); 0.516 with E. coli ATCC 25922 [1] (setting [6]); 0.625 in the assay on E. coli ATCC 25922 [1] (setting [7]); 0.75 in the assay with E. coli ATCC 25922 [1] (setting [8]).
